Measured values taken from patent US20240279215A1 (Cytokinetics, Incorporated, priority 2022, published 2024).

Target: human NAMPT (Homo sapiens (Human), UniProt P43490)
Experiment: NMN fluorescence biochemical assay (human recombinant NAMPT enzyme assay)
Outline: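 Activation of recombinant human NAMPT (6 nM) was tested with 2.5 mM ATP, 20 μM PRPP and 150 μM nicotinamide in 50 mM HEPES pH 7.2 for 60 min at ambient temperature. NMN was derivatized with acetophenone/KOH/formic acid and read by fluorescence (355/460 nm) after 40 min.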

Sequence of human NAMPT (P43490 whole entry): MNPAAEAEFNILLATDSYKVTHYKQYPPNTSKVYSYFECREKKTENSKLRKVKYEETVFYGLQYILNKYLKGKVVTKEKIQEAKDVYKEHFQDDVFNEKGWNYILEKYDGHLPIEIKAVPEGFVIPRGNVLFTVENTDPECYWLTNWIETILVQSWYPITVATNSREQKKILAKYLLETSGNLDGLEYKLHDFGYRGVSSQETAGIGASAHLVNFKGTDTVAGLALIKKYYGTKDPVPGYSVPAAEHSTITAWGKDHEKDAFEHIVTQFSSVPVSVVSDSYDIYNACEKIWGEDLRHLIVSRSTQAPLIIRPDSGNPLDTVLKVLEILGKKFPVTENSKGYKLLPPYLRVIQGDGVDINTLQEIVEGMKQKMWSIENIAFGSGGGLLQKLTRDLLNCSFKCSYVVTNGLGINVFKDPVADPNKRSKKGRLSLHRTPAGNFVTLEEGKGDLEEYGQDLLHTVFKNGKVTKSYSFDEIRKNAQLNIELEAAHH

| Structure (SMILES) | AC1.4 Human [µM] | EC50 [µM] |
| --- | --- | --- |
| O=C(Nc1ccc(CNC(=O)N2CCCCC2)cc1)OCc1ccc(Cl)cc1 [Compound 286, (4-chlorophenyl)methyl N-{4-[(piperidine-1-carbonylamino)methyl]phenyl}carbamate] | 3.79 | 14.2 |
| O=C(Nc1ccc(CC(=O)N2CCCC[C@@H]2CO)cc1)OCc1ccc(Cl)cc1 [Compound 287, (4-chlorophenyl)methyl N-(4-{2-[(2R)-2-(hydroxymethyl)piperidin-1-yl]-2-oxoethyl}phenyl)carbamate] | 3.81 | 20.6 |
| CC(C)(C)OC(=O)N1CC(OCc2ccc(NC(=O)OCc3ccc(Cl)cc3)cc2)C1 [Compound 288, tert-butyl 3-{[4-({[(4-chlorophenyl)methoxy]carbonyl}amino)phenyl]methoxy}azetidine-1-carboxylate] | 3.88 | 3.45 |
| CCc1cc(C(=O)N(C)Cc2ccc(NC(=O)OCc3ccc(Cl)cc3)cc2)n(C)n1 [Compound 289, (4-chlorophenyl)methyl N-(4-{[1-(5-ethyl-2-methylpyrazol-3-yl)-N-methylformamido]methyl}phenyl)carbamate] | 3.95 | 50.3 |
| C[C@H](NC(=O)c1ocnc1C1CC1)c1ccc(NC(=O)OCc2ccc(Cl)cc2)cc1 [Compound 290, (4-chlorophenyl)methyl N-{4-[(1S)-1-[(4-cyclopropyl-1,3-oxazol-5-yl)formamido]ethyl]phenyl}carbamate] | 3.95 | 16.9 |
| COc1ccc(COC(=O)Nc2ccc(COC3CCN(C4COC4)CC3)cc2)cc1 [Compound 291, 4-methoxybenzyl (4-(((1-(oxetan-3-yl)piperidin-4-yl)oxy)methyl)phenyl)carbamate] | 3.97 | 38.2 |
| Cc1ccc(Cc2ccc(NC(=O)OCc3ccc(Cl)cc3)cc2)cn1 [Compound 292, 4-chlorobenzyl (4-((6-methylpyridin-3-yl)methyl)phenyl)carbamate] | 4.12 | 20 |
| COCCN1CCC(Cc2ccc(NC(=O)OCc3cnco3)cc2)CC1 [Compound 293, oxazol-5-ylmethyl (4-((1-(2-methoxyethyl)piperidin-4-yl)methyl)phenyl)carbamate] | 4.16 | 18.4 |
| Cc1cnc(C(=O)NCc2ccc(NC(=O)OCc3ccc(Cl)cc3)cc2)o1 [Compound 294, (4-chlorophenyl)methyl N-(4-{[(5-methyl-1,3-oxazol-2-yl)formamido]methyl}phenyl)carbamate] | 4.19 | 46.5 |
| Cn1ccc(CC(=O)NCc2ccc(NC(=O)OCc3ccc(Cl)cc3)cc2)n1 [Compound 295, (4-chlorophenyl)methyl N-(4-{[2-(1-methylpyrazol-3-yl)acetamido]methyl}phenyl)carbamate] | 4.57 | 28 |
| CC(O)(c1ccncc1)c1ccc(NC(=O)OCc2cnco2)cc1 (stereo not drawn) [Compound 296, oxazol-5-ylmethyl (4-(1-hydroxy-1-(pyridin-4-yl)ethyl)phenyl)carbamate] | 4.62 | 14.3 |
| O=C(Cc1ncco1)NCc1ccc(NC(=O)OCc2ccc(Cl)cc2)cc1 [Compound 297, (4-chlorophenyl)methyl N-(4-{[2-(1,3-oxazol-2-yl)acetamido]methyl}phenyl)carbamate] | 4.65 | 19.8 |
| CN(Cc1ccc(NC(=O)OCc2ccc(Cl)cc2)cc1)C(=O)c1ccc(C(F)F)nc1 [Compound 298, (4-chlorophenyl)methyl N-[4-({1-[6-(difluoromethyl)pyridin-3-yl]-N-methylformamido}methyl)phenyl]carbamate] | 4.66 | 20.4 |
| O=C(Nc1ccc(Cc2ccncc2)cc1)OCc1cnsc1 [Compound 299, isothiazol-4-ylmethyl (4-(pyridin-4-ylmethyl)phenyl)carbamate] | 4.67 | 11.6 |
| O=C(Cc1ccc(NC(=O)OCc2ccc(Cl)cc2)cc1)NCc1cnccn1 [Compound 300, (4-chlorophenyl)methyl N-(4-{[(pyrazin-2-ylmethyl)carbamoyl]methyl}phenyl)carbamate] | 4.81 | 26.4 |
| CC(C)n1nccc1C(=O)NCc1ccc(NC(=O)OCc2ccc(Cl)cc2)cc1 [Compound 301, (4-chlorophenyl)methyl N-(4-{[(2-isopropylpyrazol-3-yl)formamido]methyl}phenyl)carbamate] | 4.81 | 26.8 |
| CC(C)Cn1nccc1C(=O)NCc1ccc(NC(=O)OCc2ccc(Cl)cc2)cc1 [Compound 302, (4-chlorophenyl)methyl N-[4-({[2-(2-methylpropyl)pyrazol-3-yl]formamido}methyl)phenyl]carbamate] | 4.86 | 17.2 |
| O=C(Nc1ccc(Cc2cnccn2)cc1)OCc1ccc(Cl)cc1 [Compound 303, 4-chlorobenzyl (4-(pyrazin-2-ylmethyl)phenyl)carbamate] | 4.87 | 19.4 |
| CC(C)N1CC(=O)NC[C@@H]1c1ccc(NC(=O)OCc2ccc(Cl)cc2)cc1 [Compound 304, 4-chlorobenzyl (S)-(4-(1-isopropyl-5-oxopiperazin-2-yl)phenyl)carbamate] | 4.93 | 23.5 |
| O=C(Nc1ccc(CNC(=O)c2ccc(F)cn2)cc1)OCc1ccc(Cl)cc1 [Compound 305, (4-chlorophenyl)methyl N-(4-{[(5-fluoropyridin-2-yl)formamido]methyl}phenyl)carbamate] | 4.95 | 22.9 |
| N#Cc1ccc(COC(=O)Nc2ccc(Cc3ccncc3)cc2)cc1 [Compound 306, 4-cyanobenzyl (4-(pyridin-4-ylmethyl)phenyl)carbamate] | 4.97 | 13.9 |
| O=C(Nc1ccc(Cc2ccccc2)cc1)OCc1ccc(Cl)cc1 [Compound 307] | 5.02 | 5.55 |
| O=C(Cc1ccc(NC(=O)OCc2ccc(Cl)cc2)cc1)NC1CCOCC1 [Compound 308, (4-chlorophenyl)methyl N-(4-{[(oxan-4-yl)carbamoyl]methyl}phenyl)carbamate] | 5.08 | 8.69 |
| O=C(Nc1ccc(CNC(=O)N2CCC(F)(F)CC2)cc1)OCc1ccc(Cl)cc1 [Compound 309, (4-chlorophenyl)methyl N-{4-[(4,4-difluoropiperidine-1-carbonylamino)methyl]phenyl}carbamate] | 5.19 | 14.9 |
| O=C(Nc1ccc(CNC(=O)C2COC2)cc1)OCc1ccc(Cl)cc1 [Compound 310, (4-chlorophenyl)methyl N-{4-[(oxetan-3-ylformamido)methyl]phenyl}carbamate] | 5.29 | 32.8 |
| O=C(Cc1cnco1)NCc1ccc(NC(=O)OCc2ccc(Cl)cc2)cc1 [Compound 311, (4-chlorophenyl)methyl N-(4-{[2-(1,3-oxazol-5-yl)acetamido]methyl}phenyl)carbamate] | 5.40 | 26.8 |
| O=C1CN(C(=O)C(F)(F)c2ccc(NC(=O)OCc3ccc(Cl)cc3)cc2)CCN1 [Compound 312, (4-chlorophenyl)methyl N-{4-[1,1-difluoro-2-oxo-2-(3-oxopiperazin-1-yl)ethyl]phenyl}carbamate] | 5.55 | 39.1 |
